Test results as given in publication PMC6069857, “Effects of novel HDAC inhibitors on urothelial carcinoma cells” (Clinical Epigenetics, 2018).

Experiments:
UC cells = experiment: Clonogenicity assay with Giemsa staining; type: cell-based, human; conditions: 2 μM 19i for 48 h, replated
Method: Then, depending on the cell line, 500–1000 cells were seeded in 6-cm plates, and 10 to 15 days later, colonies were washed with PBS, fixed in methanol, and stained with Giemsa (Merck Millipore, Darmstadt, Germany).

[1] = tested on: three UCCs (VM-CUB1, UM-UC-3, 639-V); experiment: qRT-PCR of TS and p21CIP1 mRNA; type: cell-based, human; conditions: 19i 2 μM, 24 or 48 h, all three UCCs
Method: Total cell RNA was isolated by the Qiagen RNeasy Mini Kit (Qiagen, Hilden, Germany) according to the manufacturer’s protocol, and cDNA was synthesized using QuantiTect Reverse Transcription Kit (Qiagen, Hilden, Germany) with an extended incubation time of 30 min at 42 °C as previously described. Target mRNA expression was measured by qRT-PCR with QuantiTect SYBR Green RT-PCR Kit (Qiagen, Hilden, Germany) on the LightCycler® 96 Real-Time PCR system with software version 1.1 (Roche Diagnostics, Rotkreuz, Switzerland). All used primers, comprising QuantiTect Primer assays (Qiagen, Hilden, Germany), self-designed target primers, and primers for the reference housekeeping gene TBP (TATA-box binding protein), are listed in Additional file 2: Table S1.

HDAC1 [2] = target: T1, HDAC1 (Homo sapiens, UniProt Q13547); parameters: purchased Reaction Biology Corp. (Malvern, PA); conditions: previously reported; given for HDAC1/2 together; cited from earlier work
T1 sequence (Q13547 whole entry): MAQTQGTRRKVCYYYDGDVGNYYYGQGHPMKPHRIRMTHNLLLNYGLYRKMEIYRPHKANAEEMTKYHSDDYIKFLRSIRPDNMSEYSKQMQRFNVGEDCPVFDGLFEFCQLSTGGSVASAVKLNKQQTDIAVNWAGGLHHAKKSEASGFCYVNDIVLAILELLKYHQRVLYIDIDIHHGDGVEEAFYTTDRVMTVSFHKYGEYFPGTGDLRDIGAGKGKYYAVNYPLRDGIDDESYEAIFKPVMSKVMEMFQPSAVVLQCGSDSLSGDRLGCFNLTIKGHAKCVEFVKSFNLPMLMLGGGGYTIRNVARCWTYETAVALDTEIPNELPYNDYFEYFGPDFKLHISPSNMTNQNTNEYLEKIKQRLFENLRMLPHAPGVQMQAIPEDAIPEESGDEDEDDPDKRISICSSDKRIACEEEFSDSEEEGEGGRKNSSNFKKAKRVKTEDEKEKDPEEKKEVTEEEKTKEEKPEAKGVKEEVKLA

HDAC6 [3] = target: T2, HDAC6 (Homo sapiens, UniProt Q9UBN7); experiment: In vitro fluorescence-based HDAC inhibition assay (Reaction Biology); conditions: read-out: IC50 HDAC6; experiment performed once
T2 sequence (Q9UBN7 whole entry): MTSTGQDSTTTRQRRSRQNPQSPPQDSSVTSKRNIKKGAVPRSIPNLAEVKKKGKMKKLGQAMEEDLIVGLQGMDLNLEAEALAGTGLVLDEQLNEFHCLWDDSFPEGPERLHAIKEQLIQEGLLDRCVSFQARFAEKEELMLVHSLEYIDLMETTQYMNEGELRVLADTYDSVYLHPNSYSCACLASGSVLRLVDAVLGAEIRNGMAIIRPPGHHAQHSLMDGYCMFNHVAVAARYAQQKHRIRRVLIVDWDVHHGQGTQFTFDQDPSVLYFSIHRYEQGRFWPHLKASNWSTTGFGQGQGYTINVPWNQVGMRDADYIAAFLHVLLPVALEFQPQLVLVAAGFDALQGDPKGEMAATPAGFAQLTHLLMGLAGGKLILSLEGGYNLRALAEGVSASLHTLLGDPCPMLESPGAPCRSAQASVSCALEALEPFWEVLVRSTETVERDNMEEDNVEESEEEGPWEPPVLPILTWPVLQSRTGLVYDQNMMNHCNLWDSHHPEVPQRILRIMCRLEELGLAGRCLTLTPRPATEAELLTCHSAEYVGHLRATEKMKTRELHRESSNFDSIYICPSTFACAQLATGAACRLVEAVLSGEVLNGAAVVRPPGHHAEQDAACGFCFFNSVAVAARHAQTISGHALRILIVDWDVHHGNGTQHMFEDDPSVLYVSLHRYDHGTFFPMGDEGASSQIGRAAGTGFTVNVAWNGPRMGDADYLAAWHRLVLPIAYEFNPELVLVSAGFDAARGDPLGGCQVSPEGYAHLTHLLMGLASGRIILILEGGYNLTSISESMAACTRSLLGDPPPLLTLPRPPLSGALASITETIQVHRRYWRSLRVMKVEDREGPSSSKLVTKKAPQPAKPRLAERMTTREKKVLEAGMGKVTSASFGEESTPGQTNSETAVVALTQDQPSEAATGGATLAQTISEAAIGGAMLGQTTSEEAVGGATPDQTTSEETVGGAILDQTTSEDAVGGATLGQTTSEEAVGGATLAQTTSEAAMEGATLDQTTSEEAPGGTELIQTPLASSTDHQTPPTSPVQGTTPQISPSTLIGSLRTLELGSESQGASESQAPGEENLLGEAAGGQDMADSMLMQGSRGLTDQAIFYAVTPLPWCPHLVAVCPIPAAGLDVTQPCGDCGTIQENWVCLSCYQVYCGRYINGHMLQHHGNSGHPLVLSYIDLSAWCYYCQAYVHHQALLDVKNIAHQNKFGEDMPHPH

UCCs = experiment: Western blot of acetylated α-tubulin and histones H3/H4; type: cell-based, human; conditions: 48 h, 19i 1 or 2 μM
Method: (§1) Total protein extraction, purification of histones, and Western blot analysis were performed as previously described. Briefly, cells were incubated for 30 min on ice in RIPA-buffer (150 mM NaCl, 1% Triton X-100, 0.5% desoxycholate, 1% Nonidet P-40, 0.1% SDS, 1 mM EDTA, 50 mM TRIS (pH 7.6)) containing 10 μl/ml protease inhibitor cocktail (#P-8340, Sigma Aldrich, St. Louis, MO). Histones were extracted for detection of histone H3 and H4 acetylation by a modified published protocol employing sulfuric acid extraction and TCA-precipitation. Concentrations of total protein and histones were determined by BCA protein assay (Thermo Fisher Scientific, Carlsbad, CA). Subsequently, total cell proteins (15 μg) or extracted histones (2 μg) were separated by SDS-PAGE (total proteins 10–12% gels, histones 15% gels), transferred to PVDF membranes (Merck Millipore, Berlin, Germany), and were incubated with primary antibodies (at RT for 1 h or 4 °C overnight, see Additional file 3: Table S2) following blocking with 5% non-fat milk or BSA (bovine serum albumin) in TBST (150 mM NaCl, 10 mM TRIS, pH 7.4 and 0.1% Tween-20). For signal detection, membranes were incubated with a suitable horseradish peroxidase-conjugated secondary antibody (see Additional file 2: Table S1) at RT for 1 h and signals were visualized by SuperSignal™ West Femto (Thermo Fisher Scientific, Carlsbad, CA) and WesternBright Quantum kit (Biozym, Hessisch Oldendorf, Germany).

[4] = tested on: UCCs VM-CUB1, UM-UC-3, and 639-V; experiment: Western blot of cleaved PARP; type: cell-based, human; conditions: 19i 2 μM, 48 h; especially in 639-V
Method: as §1, with “For signal detection, membranes were incubated with a suitable horseradish peroxidase-conjugated secondary antibody (see Additional file 2: Table S1) at RT for 1 h and signals were visualized by SuperSignal™ West Femto (Thermo Fisher Scientific, Carlsbad, CA) and WesternBright Quantum kit (Biozym, Hessisch Oldendorf, Germany).” left out

UM-UC-3-HDAC4 = experiment: MTT viability assay (CC50); type: cell-based, human; conditions: UM-UC-3-HDAC4 (HDAC4-overexpressing), 72 h
Method: (§2) HDAC4 cDNA from the pcDNA-HDAC4-FLAG plasmid kindly provided by Tso-Pang Yao (Addgene plasmid # 30485) was cloned into the lentiviral vector puc2CL12IPwo using standard techniques, thereby creating the vector puc2CL12IPwo-HDAC4-FLAG (Additional file 1: Figure S1). Integrity of the HDAC4 coding sequence was verified by sequencing. Lentivirus production and cell transduction were performed as previously described. In brief, to produce replication-deficient lentiviruses, HEK-293T cells were transfected with helper plasmid expression construct (pCD/NL-BH [35]), envelope vector (pczVSV-G [36]), and the vector plasmids puc2CL12IPwo or puc2CL12IPwo-HDAC4-FLAG. Viral particles were harvested 48 h after transfection and used to transduce VM-CUB1 and UM-UC-3 cells using 8 μg/ml polybrene (Sigma Aldrich, St. Louis, MO). Twenty-four hours after transduction, the supernatant containing viral particles was removed and the transduced cells were selected with 4 (VM-CUB1) or 1 (UM-UC-3) μg/ml puromycin (Invitrogen, Carlsbad, CA) for 7 days. Stable overexpression of HDAC4 was confirmed by Western blot analysis of cells from several passages.
(§3) For the determination of cellular mean cytotoxic concentration (CC50), UCCs, non-malignant control cells, and HDAC4-overexpressing clones were seeded in a 96-well format and treated once with a range of defined concentrations of the HDAC inhibitors. After 72 h, viability was quantified by NAD(P)H-dependent 3-(4,5-dimethylthiazol-2-yl)-2,5-diphenyltetrazolium bromide dye reduction assay (MTT, Sigma Aldrich, St. Louis, MO). CC50 values were estimated from three independent experiments by non-linear regression analysis (four-parameter logistic equation) using Prism 4.0 (Graph Pad) or Origin 8.0 (Origin Lab, Northhampton, GB). For time-dependent proliferation experiments, viability of untreated or inhibitor-treated cells was measured after 24, 48, and 72 h.

UM-UC-3-LV = experiment: MTT viability assay (CC50); type: cell-based, human; conditions: UM-UC-3-LV (empty vector), 72 h
Method: as §2, §3

VM-CUB1-HDAC4 = experiment: MTT viability assay (CC50); type: cell-based, human; conditions: VM-CUB-HDAC4 (HDAC4-overexpressing), 72 h
Method: as §2, §3

VM-CUB1-LV = experiment: MTT viability assay (CC50); type: cell-based, human; conditions: VM-CUB1-LV (empty vector), 72 h
Method: as §2, §3

HDAC5 = target: T3, HDAC5 (Homo sapiens, UniProt Q9UQL6); conditions: older assays, given for HDAC4/5 together; cited from earlier work
T3 construct: purchased Reaction Biology Corp. (Malvern, PA)
T3 sequence (Q9UQL6 whole entry): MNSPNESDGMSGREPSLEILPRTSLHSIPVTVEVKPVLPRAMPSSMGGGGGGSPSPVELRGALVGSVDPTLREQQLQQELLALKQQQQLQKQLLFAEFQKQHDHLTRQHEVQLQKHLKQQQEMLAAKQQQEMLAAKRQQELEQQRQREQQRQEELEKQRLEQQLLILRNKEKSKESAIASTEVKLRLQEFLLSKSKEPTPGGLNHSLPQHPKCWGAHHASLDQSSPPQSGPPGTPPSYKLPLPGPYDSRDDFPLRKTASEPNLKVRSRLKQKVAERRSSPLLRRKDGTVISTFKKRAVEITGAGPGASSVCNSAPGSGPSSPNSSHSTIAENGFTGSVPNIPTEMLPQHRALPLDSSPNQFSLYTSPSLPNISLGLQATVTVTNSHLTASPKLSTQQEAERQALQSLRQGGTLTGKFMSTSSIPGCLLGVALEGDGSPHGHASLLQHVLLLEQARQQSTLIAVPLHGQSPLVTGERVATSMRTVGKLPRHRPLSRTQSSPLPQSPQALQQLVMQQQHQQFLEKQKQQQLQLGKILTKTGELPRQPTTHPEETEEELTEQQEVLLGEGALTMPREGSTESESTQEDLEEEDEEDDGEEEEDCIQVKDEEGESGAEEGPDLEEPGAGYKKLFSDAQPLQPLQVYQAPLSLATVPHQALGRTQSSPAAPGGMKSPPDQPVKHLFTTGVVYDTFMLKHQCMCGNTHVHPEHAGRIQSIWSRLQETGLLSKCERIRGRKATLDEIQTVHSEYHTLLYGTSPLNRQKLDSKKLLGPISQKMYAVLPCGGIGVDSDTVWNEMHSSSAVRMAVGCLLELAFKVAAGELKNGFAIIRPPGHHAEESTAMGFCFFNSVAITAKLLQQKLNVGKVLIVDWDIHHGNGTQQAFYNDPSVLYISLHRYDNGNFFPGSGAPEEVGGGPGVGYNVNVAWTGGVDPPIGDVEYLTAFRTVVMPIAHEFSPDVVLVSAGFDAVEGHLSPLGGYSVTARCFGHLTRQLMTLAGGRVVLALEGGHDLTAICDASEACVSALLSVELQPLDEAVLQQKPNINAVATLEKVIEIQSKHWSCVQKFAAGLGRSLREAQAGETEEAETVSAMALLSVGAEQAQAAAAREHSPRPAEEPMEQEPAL

HDAC6 [5] = target: T2, HDAC6; parameters: purchased Reaction Biology Corp. (Malvern, PA); conditions: previously reported; cited from earlier work
HDAC1 [6] = target: T1, HDAC1; experiment: In vitro fluorescence-based HDAC inhibition assay (Reaction Biology); conditions: read-out: IC50 HDAC1; experiment performed once

In the case of Cc1cc(C)cc(C(=O)NOCCCCCC(=O)NO)c1 [19i], the clonogenic potential (UC cells) is reported as “impaired the clonogenic potential”, the “p21CIP1 mRNA expression” value [1] is reported as “increased” and the “thymidylate synthase (TS) mRNA expression” value [1] is reported as “decreased”. The “in vitro IC50 HDAC1” value (HDAC1 [2]) was “sub-micromolar”, the IC50 (HDAC6 [3]) was 32 nM and the “global acetylation of histones H3 and H4” value (UCCs) was “enhanced”. The “acetylation of α-tubulin” value (UCCs; SAHA 2.5 μM) was “strongly induced”, the PARP cleavage [4] was “augmented” and the CC50 (UM-UC-3-HDAC4) was 740 nM. The CC50 (UM-UC-3-LV) was 790 nM, the CC50 (VM-CUB1-HDAC4) was 630 nM and the CC50 (VM-CUB1-LV) was 950 nM. For the same molecule, the “in vitro IC50 HDAC5” value (HDAC5) was “nanomolar range”, the “in vitro IC50 HDAC6” value (HDAC6 [5]) was “sub-micromolar” and the IC50 (HDAC1 [6]) was 315 nM.
